Results published in US10875876B2, “Cyclized sulfamoylarylamide derivatives and the use thereof as medicaments for the treatment of hepatitis B” (priority 2015, dated 2020).

Key:
HepG2 cells = experiment: Cytotoxicity in HepG2 cells, Resazurin assay; details: read-out: TOX-HepG2-4 d CC50; HepG2 cells incubated for 4 days, viability by Resazurin assay
HBV = experiment: anti HBV activity, HepG2.117 cell line, intracellular HBV DNA by realtime PCR; format: cell-based; details: HepG2.117 cell line (Tet-off), 3 days of treatment, intracellular HBV DNA quantified by realtime PCR; read-out: HBV-AVE-HepG2.117 EC50
How it was run: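 HepG2.117 cells, a Tet-off line that replicates HBV without doxycycline, were induced and then treated in duplicate with serially diluted compound. After 3 days, intracellular HBV DNA was quantified by real-time PCR with an HBV-specific primer set and probe.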

| SMILES | CC50 (HepG2 cells) [nM] | EC50 (HBV) [nM] |
| --- | --- | --- |
| Cn1cc2c(c1C(=O)Nc1ccc(F)c(F)c1)OC[C@H](C(O)C1CC1)NS2(=O)=O (stereo partly drawn) [Compound 105b, (3R)-3-[cyclopropyl(hydroxy)methyl]-N-(3,4-difluorophenyl)-7-methyl-1,1-dioxo-3,4-dihydro-2H-pyrrolo[3,4-b][1,4,5]oxathiazepine-6-carboxamide] | > 25000 | 11 |
| Cn1cc2c(c1C(=O)Nc1cc(F)c(F)c(F)c1)OCC(C)(CO)NS2(=O)=O (single isomer, unassigned) [Compound 214b, 3-(hydroxymethyl)-3,7-dimethyl-1,1-dioxo-N-(3,4,5-trifluorophenyl)-2,4-dihydropyrrolo[3,4-b][1,4,5]oxathiazepine-6-carboxamide] | > 25000 | 22 |
| CCC(O)[C@H]1COc2c(cn(C)c2C(=O)Nc2ccc(F)c(C#N)c2)S(=O)(=O)N1 (stereo partly drawn) [Compound 122b, (3R)—N-(3-cyano-4-fluoro-phenyl)-3-(1-hydroxypropyl)-7-methyl-1,1-dioxo-3,4-dihydro-2H-pyrrolo[3,4-b][1,4,5]oxathiazepine-6-carboxamide] | > 25000 | 9 |
| CC(NCC(F)(F)F)C1COc2c(cn(C)c2C(=O)Nc2ccc(F)c(C#N)c2)S(=O)(=O)N1 (single isomer, unassigned) [Compound 161c, N-(3-cyano-4-fluoro-phenyl)-7-methyl-1,1-dioxo-3-[1-(2,2,2-trifluoroethylamino)ethyl]-3,4-dihydro-2H-pyrrolo[3,4-b][1,4,5]oxathiazepine-6-carboxamide] | > 25000 | 11 |
| Cc1cccc(CC2(C)COc3c(cn(C)c3C(=O)Nc3ccc(F)c(F)c3)S(=O)(=O)N2)n1 (single isomer, unassigned) [Compound 172b, N-(3,4-difluorophenyl)-3,7-dimethyl-3-[(6-methyl-2-pyridyl)methyl]-1,1-dioxo-2,4-dihydropyrrolo[3,4-b][1,4,5]oxathiazepine-6-carboxamide] | > 25000 | 64 |
| Cn1cc2c(c1C(=O)Nc1ccc(F)c(C#N)c1)OCC(C)(CO)NS2(=O)=O (single isomer, unassigned) [Compound 210b, N-(3-cyano-4-fluoro-phenyl)-3-(hydroxymethyl)-3,7-dimethyl-1,1-dioxo-2,4-dihydropyrrolo[3,4-b][1,4,5]oxathiazepine-6-carboxamide] | > 25000 | 34 |
| CC(NCC(F)(F)F)C1CCc2c(cn(C)c2C(=O)Nc2cc(F)c(F)c(F)c2)S(=O)(=O)N1 (single isomer, unassigned) [Compound 218d, 7-methyl-1,1-dioxo-3-[1-(2,2,2-trifluoroethylamino)ethyl]-N-(3,4,5-trifluorophenyl)-2,3,4,5-tetrahydropyrrolo[3,4-f]thiazepine-6-carboxamide] | > 25000 | 21 |
| Cn1cc2c(c1C(=O)Nc1ccnc(Cl)c1)OCC(C)(CO)NS2(=O)=O (single isomer, unassigned) [Compound 204b, N-(2-chloro-4-pyridyl)-3-(hydroxymethyl)-3,7-dimethyl-1,1-dioxo-2,4-dihydropyrrolo[3,4-b][1,4,5]oxathiazepine-6-carboxamide] | > 25000 | > 125 |
| Cn1ccc(C2(C)COc3c(cn(C)c3C(=O)Nc3ccc(F)c(F)c3)S(=O)(=O)N2)n1 (single isomer, unassigned) [Compound 192b, N-(3,4-difluorophenyl)-3,7-dimethyl-3-(1-methylpyrazol-3-yl)-1,1-dioxo-2,4-dihydropyrrolo[3,4-b][1,4,5]oxathiazepine-6-carboxamide] | > 25000 | 24 |
| Cc1cccc(C2(C)COc3c(cn(C)c3C(=O)Nc3ccc(F)c(F)c3)S(=O)(=O)N2)n1 (single isomer, unassigned) [Compound 168b, N-(3,4-difluorophenyl)-3,7-dimethyl-3-(6-methyl-2-pyridyl)-1,1-dioxo-2,4-dihydropyrrolo[3,4-b][1,4,5]oxathiazepine-6-carboxamide] | > 25000 | 15 |
| Cn1cc2c(c1C(=O)Nc1ccc(F)c(F)c1)O[C@@H](C(F)(F)F)[C@H](CO)NS2(=O)=O [compound 244] | > 25000 | > 500 |
| C[C@@H]1Oc2c(cn(C)c2C(=O)Nc2ccc(F)c(C#N)c2)S(=O)(=O)N[C@@H]1CO [compound 235] | > 25000 | > 500 |
| Cc1cc(CC2(C)COc3c(cn(C)c3C(=O)Nc3ccc(F)c(F)c3)S(=O)(=O)N2)n(C)n1 (single isomer, unassigned) [Compound 175b, N-(3,4-difluorophenyl)-3-[(2,5-dimethylpyrazol-3-yl)methyl]-3,7-dimethyl-1,1-dioxo-2,4-dihydropyrrolo[3,4-b][1,4,5]oxathiazepine-6-carboxamide] | > 25000 | 3 |
| Cn1cc2c(c1C(=O)Nc1ccc(F)c(C#N)c1)OC[C@H](C(O)C1CC1)NS2(=O)=O (stereo partly drawn) [Compound 120b, (3R)—N-(3-cyano-4-fluoro-phenyl)-3-[cyclopropyl(hydroxy)methyl]-7-methyl-1,1-dioxo-3,4-dihydro-2H-pyrrolo[3,4-b][1,4,5]oxathiazepine-6-carboxamide] | > 25000 | 11 |
| Cn1cc2c(c1C(=O)Nc1ccc(F)c(F)c1)OCC(C)(CO)NS2(=O)=O (single isomer, unassigned) [Compound 203b, N-(3,4-difluorophenyl)-3-(hydroxymethyl)-3,7-dimethyl-1,1-dioxo-2,4-dihydropyrrolo[3,4-b][1,4,5]oxathiazepine-6-carboxamide] | > 25000 | 59 |
| CC(NCC(F)(F)F)C1COc2c(cn(C)c2C(=O)Nc2ccc(F)c(C#N)c2)S(=O)(=O)N1 (single isomer, unassigned) [Compound 161b, N-(3-cyano-4-fluoro-phenyl)-7-methyl-1,1-dioxo-3-[1-(2,2,2-trifluoroethylamino)ethyl]-3,4-dihydro-2H-pyrrolo[3,4-b][1,4,5]oxathiazepine-6-carboxamide] | > 25000 | > 125 |
| CC(NCC(F)(F)F)C1COc2c(cn(C)c2C(=O)Nc2ccc(F)c(C#N)c2)S(=O)(=O)N1 (single isomer, unassigned) [Compound 161d, N-(3-cyano-4-fluoro-phenyl)-7-methyl-1,1-dioxo-3-[1-(2,2,2-trifluoroethylamino)ethyl]-3,4-dihydro-2H-pyrrolo[3,4-b][1,4,5]oxathiazepine-6-carboxamide] | > 25000 | 11 |
| Cc1cc(CC2(C)COc3c(cn(C)c3C(=O)Nc3ccnc(C(F)F)c3)S(=O)(=O)N2)no1 (single isomer, unassigned) [Compound 209b, N-[2-(difluoromethyl)-4-pyridyl]-3,7-dimethyl-3-[(5-methylisoxazol-3-yl)methyl]-1,1-dioxo-2,4-dihydropyrrolo[3,4-b][1,4,5]oxathiazepine-6-carboxamide] | > 25000 | 18 |
| CC1C/C=C\c2c(cn(C)c2C(=O)Nc2ccc(F)c(F)c2)S(=O)(=O)N1 (single isomer, unassigned) [Compound 15b, (5Z)—N-(3,4-difluorophenyl)-3,8-dimethyl-1,1-dioxo-3,4-dihydro-2H-pyrrolo[3,4-g]thiazocine-7-carboxamide] | > 25000 | > 500 |
| Cn1cc2c(c1C(=O)Nc1ccc(F)c(Cl)c1)OC[C@H](C(O)C1CC1)NS2(=O)=O (single isomer, unassigned) [Compound 207b, N-(3-chloro-4-fluoro-phenyl)-3-[cyclopropyl(hydroxy)methyl]-7-methyl-1,1-dioxo-3,4-dihydro-2H-pyrrolo[3,4-b][1,4,5]oxathiazepine-6-carboxamide] | > 25000 | 5 |
| Cn1cc2c(c1C(=O)Nc1ccc(F)c(F)c1)OC[C@@H](C(O)C1CC1)NS2(=O)=O (single isomer, unassigned) [Compound 92b] | > 25000 | 170 |
| Cn1cc2c(c1C(=O)Nc1ccc(F)c(C(F)F)c1)OC[C@H](C(O)C1CC1)NS2(=O)=O (stereo partly drawn) [Compound 115b, (3R)-3-[cyclopropyl(hydroxy)methyl]-N-[3-(difluoromethyl)-4-fluoro-phenyl]-7-methyl-1,1-dioxo-3,4-dihydro-2H-pyrrolo[3,4-b][1,4,5]oxathiazepine-6-carboxamide] | > 25000 | 7 |
| CCC(O)[C@@H]1COc2c(cn(C)c2C(=O)Nc2ccc(F)c(C(F)F)c2)S(=O)(=O)N1 (single isomer, unassigned) [Compound 144b, N-[3-(difluoromethyl)-4-fluoro-phenyl]-3-(1-hydroxypropyl)-7-methyl-1,1-dioxo-3,4-dihydro-2H-pyrrolo[3,4-b][1,4,5]oxathiazepine-6-carboxamide] | > 25000 | 63 |
| CC1COc2c(cn(C)c2C(=O)Nc2ccc(F)c(F)c2)S(=O)(=O)N1 (single isomer, unassigned) [Compound 14b, N-(3,4-difluorophenyl)-3,7-dimethyl-1,1-dioxo-3,4-dihydro-2H-pyrrolo-[3,4-b][1,4,5]oxathiazepine-6-carboxamide] | > 25000 | 78 |
| Cc1cc(CC2(C)COc3c(cn(C)c3C(=O)Nc3ccc(F)c(C#N)c3)S(=O)(=O)N2)no1 (single isomer, unassigned) [Compound 220b, N-(3-cyano-4-fluoro-phenyl)-3,7-dimethyl-3-[(5-methylisoxazol-3-yl)methyl]-1,1-dioxo-2,4-dihydropyrrolo[3,4-b][1,4,5]oxathiazepine-6-carboxamide] | > 25000 | 34 |
| Cn1cc2c(c1C(=O)Nc1ccc(F)c(F)c1)OCC(C)(c1ncco1)NS2(=O)=O (single isomer, unassigned) [Compound 160b, N-(3,4-difluorophenyl)-3,7-dimethyl-3-oxazol-2-yl-1,1-dioxo-2,4-dihydropyrrolo[3,4-b][1,4,5]oxathiazepine-6-carboxamide] | > 25000 | 21 |
